Consider 1 molecule from patent publication US11083714B2, “Selective anti-cancer agent effective for prevention and treatment” (Molecular International Research, Inc., priority 2018, dated 2021).

In series [1] the test system is RPWE-1. In words: Cell Proliferation (anti-cancer), RPWE-1. Type of series: cell-based, human. As for the experimental part: The primary goal of synthesizing de-ethylflavopereirine (compound 13-9-1) was to generate a different compound that still retains the anti-cancer cell activity of flavopereirine (compound 13-7-2). Comparison of the effects of the two compounds on proliferation of a variety of cancer cells confirmed that this goal was achieved. For example, the effect of de-ethylflavopereirine on two human breast cancer cell lines and two human prostate cancer cell lines were analyzed.

Series [2] is described as follows: Toxicity in mice, intravenous administration. Format: in vivo. To be noted: 20 mg/kg and 40 mg/kg. As for the experimental part: At 20 mg/kg and 40 mg/kg doses, intravenous administration of compound 13-9-1 in mice was well-tolerated. The 20 mg/kg dose provides sufficient serum concentration for the compound to exert its anti-tumor effect.
(§1) Oral administration was chosen for the mouse experiments because administration is simplified by avoiding the need for tail vein injections.

The nature of series [3]: Plasma concentrations after intravenous or oral administration. Format: in vivo, mice. The method, then: FIG. 15. Plasma concentrations of de-ethylflavopereirine following intravenous or oral administration: intravenous at 20 mg/kg (lozenges) having a peak at approximately 2 hours, oral at 100 mg/kg (squares), or oral at 200 mg/kg (triangles) having a peak at approximately 4 hours.
as §1

For series [4], the system named is PANC-1 cells. As to the kind of experiment: CD24/CD44/EpCam triple positive cells by flow cytometry. Format: cell-based. To be noted: 2.5, 5, 10 μM. As for the experimental part:
FIG. 24. De-ethylflavopereirine decreased the percentage of cancer stem cells in a pancreatic cancer cell population (24 hours). The panels show CD44 (PE-Cy7) positive and EpCam (APC) positive cells in the CD24 (PE) gate at concentrations of 0 μM (upper left), 2.5 μM (upper right), 5 μM (lower left), and 10 μM (lower right) de-ethylflavopereirine after 24 hr. “Q1”=CD24^+/CD44^+, “Triple+”=CD24^+/CD44^+/EpCam^+, “Q3”=CD24^+, and “Q4”=CD24^+/EpCam^+.
FIG. 25. De-ethylflavopereirine decreased the percentage of cancer stem cells in a pancreatic cancer cell population (48 hours). The panels show CD44 (PE-Cy7) positive and EpCam (APC) positive cells in the CD24 (PE) gate at concentrations of 0 μM (upper left), 2.5 μM (upper right), 5 μM (lower left), and 10 μM (lower right) de-ethylflavopereirine after 48 hr. “Q1”=CD24^+/CD44^+, “Triple+”=CD24^+/CD44^+/EpCam^+, “Q3”=CD24^+, and “Q4”=CD24^+/EpCam^+.
Cancer stem cells can be identified by specific cell-surface markers. A combination of three markers CD24, CD44, and EpCam is used for detection of pancreatic cancer stem cells. These markers can be labeled by different fluorophores and detected simultaneously by flow cytometry. Triple positive cells (i.e., cells that express all three markers) are regarded as pancreatic cancer stem cells. De-ethylflavopereirine reduced the percentage of pancreatic cancer stem cells in pancreatic cancer cell populations. PANC-1 cells were treated with 2.5 μM, 5.0 μM, and 10 μM concentrations of the compound for 24 hours or 48 hours. Triple positive cells were identified in quadrant Q2 (“Triple+”) of the flow cytometry output.

Series [5] deals with PANC-1 cells. In words: Tumor formation and growth after inoculation of pretreated PANC-1 cells (FIG. 26). Format: in vivo, mice. The method, then: FIG. 26. Effect of de-ethylflavopereirine on pancreatic cancer formation and growth. […] In the control group (top line of left graph), 86.67% (13/15) of the untreated mice formed tumors. Compound 13-9-1 (10 μM) decreased the rate to 80% (4/5); there was no effect on the time of tumor formation (bottom line of left graph). […] In the control group (top line of left graph), 80% (12/15) of the untreated mice formed tumors. Compound 13-9-1 (10 μM) decreased the tumor formation rate to 60% (3/5); this indicated reduction in tumor formation initiated by pancreatic cancer stem cells (bottom line of left graph). […] In FIG. 26C, after 2×10^4 PANC-1 cells were inoculated, 20% of the mice formed tumors in both the control group (3/15) and the treated group (1/5) at 38 days of observation.
In vivo, cancer stem cells are the primary source of tumor formation and growth. Thus, the rates of tumor formation and growth are indicators of cancer stem cell activity. When animals are inoculated with limited numbers of cancer cells, rates of tumor formation and growth can be accurately measured. It can then be determined whether a prospective agent slows the formation and growth rates of tumors, which is an indication of whether it acts against cancer stem cells. PANC-1 cancer cells were grown in suspension and pretreated with de-ethylflavopereirine at 10 μM concentration before inoculation into mice. As a negative control, PANC-1 cancer cells were not pretreated with the compound. Following inoculation, the rates of tumor formation and growth were measured. • 1) After 10^6 PANC-1 cells were inoculated, tumors formed in 87% of the mice in the control group and 80% of the mice in the treated group. […] De-ethylflavopereirine reduced tumor formation rate to 60%, indicating inhibition of pancreatic cancer stem cells. […] De-Ethylflavopereirine Suppresses PANC-1 Tumor Formation In Vivo: Anti-Cancer Stem Cell Activity

For series [6], the system named is β-catenin. In words: β-catenin localization in PANC-1 cells (Wnt signaling). Type of series: cell-based. From the text: FIG. 28. Effect of de-ethylflavopereirine on β-catenin localization in the nucleus of PANC-1 cells. […] Cytoplasmic β-catenin levels were not affected under these conditions. Vinculin provided a marker for a cytoplasmic protein that is present in very low amounts in the nucleus.
Wnt pathway activation involves translocation of β-catenin from the cytoplasm into the nucleus and subsequent changes in transcription of targeted genes. Suppression of Wnt activation occurs when the translocation of β-catenin into the nucleus is suppressed. […] So de-ethylflavopereirine inhibits the growth of pancreatic cancer stem cells in part because it specifically suppresses Wnt signaling.

[7] abbreviates: 1×10^6 PANC-1 cells pretreated at 10 μM.
Where [8] appears, read: 2×10^5 PANC-1 cells pretreated at 10 μM.

As for `c1ccc2c(c1)[nH]c1c2cc[n+]2ccccc12` [Compound 13-9-1, 12H-indolo[2,3-a]quinolizin-5-ium], in series [1], the “Growth Inhibition” value is “Yes”. Further, the IC50 in series [1] (Homo sapiens, after any period of treatment, read-out: Minimum Dose (IC50) needed to decrease growth 50% or greater versus control) was 5 µM. In addition, in series [2], the “tolerability of intravenous administration” value is “well-tolerated”. Moreover, the entries for the “time of peak plasma concentration” value in series [3] (intravenous at 20 mg/kg) and in series [3] (oral at 200 mg/kg (sentence also lists oral at 100 mg/kg)) were “approximately 2 hours” and “approximately 4 hours”, respectively. In addition, the “CD24+/CD44+/EpCam+ (triple positive) cell population” value is reported as “Reduction” in series [4] (24 hr, listed as De-ethylflavopereirine); “reduced the CD24^+/CD44^+/EpCam^+ cell population” in series [4] (24 hr, listed as de-ethylflavopereirine); “reduced the CD24^+/CD44^+/EpCam^+ cell population” in series [4] (48 hr). In addition, the “growth of tumors formed” value in series [5] (setting [7]) is recorded as “reduced the growth of tumors”; in series [5] (1×10^6 PANC-1 cells pretreated at 10 μM, listed as De-ethylflavopereirine), “significantly inhibited the growth”; in series [5] (2×10^4 PANC-1 cells pretreated at 10 μM) it was “not significantly different”; in series [5] (setting [8]) it was “significantly reduced tumor growth”; in series [5] (2×10^5 PANC-1 cells pretreated at 10 μM, listed as De-ethylflavopereirine), “slowed the growth rate”. For the same molecule, in series [5] (setting [7]), the “time of tumor formation” value is “no effect”. Also, the “tumor formation rate (mice that formed tumors)” value in series [5] (setting [7]) was 80%; in series [5] (2×10^4 PANC-1 cells pretreated at 10 μM, 38 days), 20%; in series [5] (setting [8]), 60%. For the same molecule, the “cytoplasmic β-catenin levels” value in series [6] (24 and 48 hr) is “not affected”. For the same molecule, the “β-catenin levels in the nucleus” value in series [6] (24 hr post-treatment) is “no effect”; in series [6] (48 hr post-treatment) it was “significantly reduced”.
